The values below come from US20140073694A1, “CYSTAMINE ANALOGUES FOR THE TREATMENT OF PARKINSON'S DISEASE” (UNIVERSITE LAVAL, priority 2011, published 2014).

“Also recorded” adds a separate entry of the source.

The nature of the series: Plasma and brain metabolite levels by HPLC after a single i.p. cystamine injection (dose-response study). It counts as in vivo, C57BL/6 mice. The protocol:
Young adult (9-week old, 25 g) male C57BL/6 mice were purchased from Charles River Laboratories (Montréal, QC, Canada). Animals were housed four per cage under standard conditions with free access to food and water, randomized and handled under the same conditions by one investigator. All experiments were performed in accordance with the Canadian Council on Animal Care and were approved by the Institutional Committee of the Centre Hospitalier de l'Université Laval (CHUL). Throughout the experiment, the health status of all mice included in the study was closely monitored. To clearly identify the active intermediate following cystamine injection, as well as to understand its systemic and cerebral metabolism, a single intraperitoneal (i.p.) injection of cystamine was administered to normal adult C57BL/6 male mice using three different doses: 10, 50, and 200 mg/kg, as determined in prior publications (Tremblay et al. 2006; Gibrat et al. 2010). These doses were ultimately compared with saline injections. Cystamine was dissolved in sterile saline (0.9%) and injected 1, 3, 12, 24 and 48 h before killing. Animals were sacrificed under deep anesthesia with ketamine/xylazine and perfused via intracardiac infusion with 0.1 M phosphate-buffered saline. After intracardiac perfusion, brains were collected, snap-frozen in 2-methyl-butane and then stored at −80° C. until cryostat dissection for HPLC analyses. A total of 200 mice were assigned to this study (n=10 per group).
HPLC coupled to fluorescence detection was used in cysteine and cysteamine quantification of both sets of experiments: the dose-response study and in situ cerebral perfusion (ISCP) procedures. Frontal cortex were homogenized in 200 μL of NaHCO3 and then centrifuged at 15 700 g (4° C.) for 20 min. Fifty μl of supernatant were directly derivatized with 30 μL of 4-fluoro-7-sulfamoylbenzo-furazan (ABD-F) reagent. The alkylation reaction was completed at 55° C. for 15 min and stopped with 4.9 μL HCl 12 N. After a 10-min centrifugation at 7500 g (4° C.), the supernatant were immediately injected into the chromatograph consisting of a Waters 717 plus autosampler automatic injector set at 4° C., a Waters 1525 binary pump equipped with an Atlantis dC18 ([…]; 3.9×150 mm) column, and a Waters 2487 Dual Absorbance detector (Waters limited, Lachine, QC, Canada). The excitation was set at 385 nm and emission at 515 nm. The mobile phase, which consisted in 2.5% methanol and 0.1 M ammonium acetate adjusted at pH 4.0, was delivered at 1 mL/min (Santa et al. 2006). Peaks were identified and quantified using Breeze software (Waters limited). HPLC quantifications were normalized to protein concentrations. Protein measurements were determined with a bicinchoninic acid protein assay kit (Pierce, Rockford, Ill., USA) as described by the manufacturer's protocol.
Taurine and hypotaurine were measured by HPLC coupled with UV detection. Supernatant from NaHCO3 brain (bregma 1.54 to −0.58 mm) extracts (see section above for details) were directly derivatized with the reagent dansyl chloride (Sigma-Aldrich, St. Louis, Mo., USA) based on modified published methods (Saller and Czupryna 1989; Calon et al. 1999). Briefly, 50 μL of dansyl chloride (1.2 mg/mL) and 50 μL of sample or standard solution were mixed and then incubated for 30 min at 90° C. After a 10-min centrifugation at 7500 g (4° C.), supernatants were immediately injected into the chromatograph described above. Absorbance was set at 337 nm and the sensitivity at 0.5 absorbance unit full scale. […] Results were obtained using the same method as described above.

Setting [1] is: single i.p. cystamine 10, 50 or 200 mg/kg.
Setting [2] is: single i.p. cystamine 10, 50 or 200 mg/kg, 1-48 h.

Consider `NCCSSCCN` [cystamine, Cystamine], for which the plasma cysteamine level entry (cystamine-treated mice, single i.p. dose) is reported as “undetectable”. The brain cysteamine level entry (single i.p. cystamine 50 mg/kg, 1 h post-injection, vs saline) is reported as “significant increases; also recorded: significantly increased”; the brain cysteamine level entry (single i.p. cystamine 200 mg/kg, 1 h post-injection, vs saline) is given as “significant increase”; the brain cysteamine level entry (single i.p. cystamine (200 mg/kg per FIG. 7), 3 h post-injection, vs saline) is given as “remained significantly elevated; also recorded: significant increase”; the brain cysteamine level result (single i.p. cystamine, all three doses (10, 50, 200 mg/kg), each time point) is listed as “marked increased in brain cysteamine”. Moreover, the plasma hypotaurine level entry under setting [1] is recorded as “remained under or close to the detection threshold”. Also, the plasma taurine level result under setting [1] is “remained under or close to the detection threshold”. Further, the brain hypotaurine level entry under setting [2] is “no significant alteration”. Moreover, under setting [2], the brain taurine level entry was “no significant alteration”. Further, under “single i.p. cystamine, up to 200 mg/kg (data not shown)”, the plasma cysteine level entry was “did not affect”. Also, the brain cysteine level result (single i.p. cystamine, up to 200 mg/kg, all time points) was “did not affect; also recorded: stable”.
